Reference: patent US8802720B2, “Acylamino-substituted fused cyclopentanecarboxylic acid derivatives and their use as pharmaceuticals” (SANOFI, priority 2008, dated 2014)

biological target: human Edg-2 receptor (LPA1 receptor) (Homo sapiens, UniProt Q92633); assay: Edg-2 receptor inhibition by FLIPR calcium fluorescence measurement (LPA-mediated calcium liberation); type: cell-based; conditions: CHO cells stably overexpressing human Edg-2 receptor; LPA 18:1 100 nM; fluo-4 fluorescence; triplicate; read-out: Inhibitory concentrations IC50 for inhibition of the Edg-2 receptor
Method in brief: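 CHO cells stably overexpressing human Edg-2 were fluo-4 loaded and pre-incubated ~5 min with compound (≤0.3% DMSO) in HBSS/HEPES/probenecid, pH 7.5. Then LPA 18:1 at 100 nM final was added. Peak calcium fluorescence over ~3 min, baseline-corrected versus DMSO, gave % inhibition in triplicate and IC50.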

human Edg-2 receptor (LPA1 receptor), sequence (Q92633 whole entry): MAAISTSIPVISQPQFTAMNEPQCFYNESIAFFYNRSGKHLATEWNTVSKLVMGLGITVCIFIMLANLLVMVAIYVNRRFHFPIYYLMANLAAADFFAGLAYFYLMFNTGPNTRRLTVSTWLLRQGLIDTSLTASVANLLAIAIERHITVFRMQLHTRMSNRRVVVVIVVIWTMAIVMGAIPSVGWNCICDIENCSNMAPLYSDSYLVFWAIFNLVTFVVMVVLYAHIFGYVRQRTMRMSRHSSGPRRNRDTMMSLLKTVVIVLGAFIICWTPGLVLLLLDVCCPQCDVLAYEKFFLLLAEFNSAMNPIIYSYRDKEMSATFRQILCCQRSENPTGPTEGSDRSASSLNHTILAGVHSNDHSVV

SMILES | IC50 [nM]
CCCc1ccc(-c2cc(C(=O)NC3(C(=O)O)Cc4ccccc4C3)ccc2OC)cc1 [Example 290] | 1000 to 30000
COc1ccc(C(=O)NC2(C(=O)O)Cc3ccccc3C2)cc1-c1ccc(C)c(C)c1 [Example 291] | 100 to 1000
COc1ccc(C(=O)NC2(C(=O)O)Cc3ccccc3C2)cc1-c1ccc(Cl)c(Cl)c1 [Example 292] | < 100
COc1ccc(C(=O)NC2(C(=O)O)Cc3ccccc3C2)cc1-c1cccc(Cl)c1Cl [Example 293] | < 100
COc1ccc(C(=O)NC2(C(=O)O)Cc3ccccc3C2)cc1-c1cc(C)c(OC)c(C)c1 [Example 294] | < 100
COc1ccc(C(=O)NC2(C(=O)O)Cc3ccccc3C2)cc1-c1csc2ccccc12 [Example 295] | < 100
COc1ccc(Cl)cc1-c1cc(C(=O)NC2(C(=O)O)Cc3ccccc3C2)ccc1OC [Example 296] | < 100
COc1ccc(C(=O)NC2(C(=O)O)Cc3ccccc3C2)cc1-c1cccc(C#N)c1 [Example 297] | < 100
COc1ccc(C(=O)NC2(C(=O)O)Cc3ccccc3C2)cc1-c1ccccc1CN(C)C [Example 299] | 1000 to 30000
COc1ccc(C(=O)NC2(C(=O)O)Cc3ccccc3C2)cc1-c1cc(C)cs1 [Example 300] | 100 to 1000
COc1ccc(C(=O)NC2(C(=O)O)Cc3ccccc3C2)cc1-c1cccc(SC)c1 [Example 301] | < 100
COc1ccc(C(=O)NC2(C(=O)O)Cc3ccccc3C2)cc1-c1cccc(OC(F)(F)F)c1 [Example 302] | < 100
COc1ccc(C(=O)NC2(C(=O)O)Cc3ccccc3C2)cc1-c1cc(Cl)ccc1Cl [Example 303] | < 100
COc1ccc(F)cc1-c1cc(C(=O)NC2(C(=O)O)Cc3ccccc3C2)ccc1OC [Example 304] | < 100
COc1ccc(C(=O)NC2(C(=O)O)Cc3ccccc3C2)cc1-c1cccc(OCc2ccccc2)c1 [Example 305] | 100 to 1000
COc1ccc(C(=O)NC2(C(=O)O)Cc3ccccc3C2)cc1-c1cc(F)c(F)c(F)c1 [Example 306] | < 100
COc1ccc(C(=O)NC2(C(=O)O)Cc3ccccc3C2)cc1-c1cccc(NS(C)(=O)=O)c1 [Example 307] | < 100
CCSc1cccc(-c2cc(C(=O)NC3(C(=O)O)Cc4ccccc4C3)ccc2OC)c1 [Example 308] | < 100
COc1ccc(C(=O)NC2(C(=O)O)Cc3ccccc3C2)cc1-c1cccc(S(C)(=O)=O)c1 [Example 309] | 100 to 1000
COc1ccc(C(=O)NC2(C(=O)O)Cc3ccccc3C2)cc1-c1ccc(Cl)c(C(F)(F)F)c1 [Example 310] | 100 to 1000
CCS(=O)(=O)c1cccc(-c2cc(C(=O)NC3(C(=O)O)Cc4ccccc4C3)ccc2OC)c1 [Example 312, 2-[(3′-ethanesulfonyl-6-methoxy-biphenyl-3-carbonyl)-amino]-indane-2-carboxylic acid] | 100 to 1000
COc1ccc(C(=O)NC2(C(=O)O)Cc3ccccc3C2)cc1-c1cc(C)cc(C(C)(C)C)c1 [Example 313] | < 100
COc1ccc(C(=O)NC2(C(=O)O)Cc3ccccc3C2)cc1-c1cc(Cl)ccc1C [Example 314] | < 100
COCc1cccc(-c2cc(C(=O)NC3(C(=O)O)Cc4ccccc4C3)ccc2OC)c1 [Example 315] | < 100

SMILES | IC50 [nM]
COCc1ccccc1-c1cc(C(=O)NC2(C(=O)O)Cc3ccccc3C2)ccc1OC [Example 316] | 100 to 1000
COc1ccc(C(=O)NC2(C(=O)O)Cc3ccccc3C2)cc1-c1cc(C)c(C)cc1C [Example 317] | 100 to 1000
CCCOc1cccc(-c2cc(C(=O)NC3(C(=O)O)Cc4ccccc4C3)ccc2OC)c1 [Example 318] | < 100
COc1ccc(C(=O)NC2(C(=O)O)Cc3ccccc3C2)cc1-c1cccc(OC(C)C)c1 [Example 319] | 100 to 1000
COc1ccc(C(=O)NC2(C(=O)O)Cc3ccccc3C2)cc1-c1cc(C(F)(F)F)ccc1F [Example 320] | < 100
CCCOc1ccc(-c2cc(C(=O)NC3(C(=O)O)Cc4ccccc4C3)ccc2OC)cc1Cl [Example 321] | 1000 to 30000
COc1ccc(C(=O)NC2(C(=O)O)Cc3ccccc3C2)cc1-c1ccc(C(F)(F)F)c(Cl)c1 [Example 322] | < 100
CNC(=O)c1cccc(-c2cc(C(=O)NC3(C(=O)O)Cc4ccccc4C3)ccc2OC)c1 [Example 323] | 1000 to 30000
COc1ccc(C(=O)NC2(C(=O)O)Cc3ccccc3C2)cc1-c1cccc(OCC2CC2)c1 [Example 324] | 1000 to 30000
COc1ccc(-c2cc(C(=O)NC3(C(=O)O)Cc4ccccc4C3)ccc2OC)cc1Cl [Example 325] | < 100
COc1ccc(C(=O)NC2(C(=O)O)Cc3ccccc3C2)cc1-c1ccc2occc2c1 [Example 326] | 100 to 1000
COc1ccc(C(=O)NC2(C(=O)O)Cc3ccccc3C2)cc1-c1cccc(Cl)c1C [Example 327] | < 100
COc1ccc(C(=O)NC2(C(=O)O)Cc3ccccc3C2)cc1-c1cccc(CCC(=O)O)c1 [Example 328] | 100 to 1000
COc1ccc(C(=O)NC2(C(=O)O)Cc3ccccc3C2)cc1-c1ccsc1Cl [Example 329] | 1000 to 30000
COc1ccc(C(=O)NC2(C(=O)O)Cc3ccccc3C2)cc1-c1ccc2c(ccn2C)c1 [Example 330] | 1000 to 30000
CCOc1ccc2ccccc2c1-c1cc(C(=O)NC2(C(=O)O)Cc3ccccc3C2)ccc1OC [Example 331] | 100 to 1000
COc1ccc(C(=O)NC2(C(=O)O)Cc3ccccc3C2)cc1-c1cc(Cl)ccc1F [Example 332] | 100 to 1000
COc1ccc(C(=O)NC2(C(=O)O)Cc3ccccc3C2)cc1-c1cc(Cl)cc(C)c1F [Example 333] | < 100
COc1ccc(C(=O)NC2(C(=O)O)Cc3ccccc3C2)cc1-c1cccc(-n2cccn2)c1 [Example 334] | 100 to 1000
COc1ccc(C(=O)NC2(C(=O)O)Cc3ccccc3C2)cc1-c1cc(F)ccc1OC(C)C [Example 335] | < 100
COc1ccc(C(=O)NC2(C(=O)O)Cc3ccccc3C2)cc1-c1cc(OC(C)C)ccc1F [Example 336] | 1000 to 30000
COc1ccc(C(=O)NC2(C(=O)O)Cc3ccccc3C2)cc1-c1cc(F)cc(C(F)(F)F)c1 [Example 337] | < 100
COc1ccc(C(=O)NC2(C(=O)O)Cc3ccccc3C2)cc1-c1cccc(CN(C)C)c1 [Example 338] | 1000 to 30000
COc1ccc(C(=O)NC2(C(=O)O)Cc3ccccc3C2)cc1-c1cccc(CNC(C)=O)c1 [Example 339] | 100 to 1000

SMILES | IC50 [nM]
CCOc1ccc(-c2cc(C(=O)NC3(C(=O)O)Cc4ccccc4C3)ccc2OC)cc1C [Example 340] | 100 to 1000
COc1ccc(C(=O)NC2(C(=O)O)Cc3ccccc3C2)cc1-c1ccc(OC(C)C)c(C)c1 [Example 341] | 1000 to 30000
COc1ccc(C(=O)NC2(C(=O)O)Cc3ccccc3C2)cc1-c1cc(F)cc(Cl)c1 [Example 342] | < 100
COc1ccc(C(=O)NC2(C(=O)O)Cc3ccccc3C2)cc1-c1cc(F)cc(OC(C)C)c1 [Example 343] | < 100
COc1ccc(C(=O)NC2(C(=O)O)Cc3ccccc3C2)cc1-c1cc(F)cc(OCC(C)C)c1 [Example 344] | 100 to 1000
COc1ccc(C(=O)NC2(C(=O)O)Cc3ccccc3C2)cc1-c1ccc(F)c(C(F)(F)F)c1 [Example 345] | < 100
COc1ccc(C(=O)NC2(C(=O)O)Cc3ccccc3C2)cc1-c1cccc(OCC(F)(F)F)c1 [Example 346] | 100 to 1000
COc1ccc(C(=O)NC2(C(=O)O)Cc3ccccc3C2)cc1-c1cc(Cl)cc(C(F)(F)F)c1 [Example 347] | < 100
COc1ccc(C(=O)NC2(C(=O)O)Cc3ccccc3C2)cc1-c1cccc(C(F)(F)F)c1F [Example 348] | < 100
COc1cc(-c2cc(C(=O)NC3(C(=O)O)Cc4ccccc4C3)ccc2OC)cc(C(F)(F)F)c1 [Example 349] | < 100
COc1ccc(C(=O)NC2(C(=O)O)Cc3ccccc3C2)cc1-c1cccc(NC(=O)C(C)C)c1 [Example 350] | 1000 to 30000
COc1ccc(C(=O)NC2(C(=O)O)Cc3ccccc3C2)cc1-c1cc(Cl)ccc1C(F)(F)F [Example 351] | < 100
COc1ccc(C(=O)NC2(C(=O)O)Cc3ccccc3C2)cc1OCCc1cc(Cl)ccc1Cl [Example 352] | < 100
COc1ccc(C(=O)NC2(C(=O)O)Cc3ccccc3C2)cc1OCCc1nonc1C [Example 353] | 1000 to 30000
COc1ccc(C(=O)NC2(C(=O)O)Cc3ccccc3C2)cc1OCCc1noc2ccccc12 [Example 354] | 1000 to 30000
COc1ccc(C(=O)NC2(C(=O)O)Cc3ccccc3C2)cc1OCCc1cc(OC(F)(F)F)ccc1F [Example 355, 2-{3-[2-(2-fluoro-5-trifluoromethoxy-phenyl)-ethoxy]-4-methoxy-benzoylamino}-indane-2-carboxylic acid] | < 100
CCS(=O)(=O)c1cccc(-c2cc(C(=O)NC3(C(=O)O)Cc4ccccc4C3)cc(F)c2OC)c1 [Example 357, 2-[(3′-Ethanesulfonyl-5-fluoro-6-methoxy-biphenyl-3-carbonyl)-amino]-indane-2-carboxylic acid] | < 100
COc1c(F)cc(C(=O)NC2(C(=O)O)Cc3ccccc3C2)cc1-c1ccc(Cl)cc1 [Example 358] | < 100
COc1c(F)cc(C(=O)NC2(C(=O)O)Cc3ccccc3C2)cc1-c1cccc(NS(C)(=O)=O)c1 [Example 359] | < 100
COc1c(F)cc(C(=O)NC2(C(=O)O)Cc3ccccc3C2)cc1-c1cccc(C(C)C)c1 [Example 360, 2-[(5-fluoro-3′-isopropyl-6-methoxy-biphenyl-3-carbonyl)-amino]-indane-2-carboxylic acid] | < 100
COc1c(F)cc(C(=O)NC2(C(=O)O)Cc3ccccc3C2)cc1-c1cccc(NS(=O)(=O)N(C)C)c1 [Example 361] | < 100
O=C(NC1(C(=O)O)Cc2ccccc2C1)c1ccc(C(F)(F)F)c(OCCc2cc(Cl)ccc2Cl)c1 [Example 362, 2-{3-[2-(2,5-Dichloro-phenyl)-ethoxy]-4-trifluoromethyl-benzoylamino}-indane-2-carboxylic acid] | < 100
